Blank lines part the entries; values can stand above or below the compound they belong to. The source made the active and inactive calls. No cut-off for these calls is given here. Where a SMILES comes first, the peptide text is derived from it. The star is where a group is joined. Cbz = O=C(OCc1ccccc1)*
What was measured:
HL-60 = assay: Cytotoxicity against human HL-60 cells assessed as cell health index score at 0.005 to 100 uM incubated for 4 hrs by fluorescent dye based flow cytometric analysis; format: toxicity; conditions: hl-60, 4 h, dose 0.005-100 µM
MM1.S [1] = assay: Effect on bortezomib-induced human MM1.S cells at 1 to 10 uM pretreated with bortezomib for 6 hrs followed by compound addition and measured after 7 to 18 hrs by cellTiter-Glo luminescent cell viability assay; format: functional, cell-based; conditions: dose 1-10 µM, time 7-18 hrs
[2] = molecular target: T1, Protein deacetylase HDAC6 (Homo sapiens, UniProt Q9UBN7); assay: Displacement of FITC-labeled C-terminal ubiquitin LRLRGG peptide from HDAC6-ubiquitin binding domain (1109 to 1215 residues) (unknown origin) extracted from Escherichia coli BL21 (DE3) by FPPD assay
T1 sequence (Q9UBN7 whole entry): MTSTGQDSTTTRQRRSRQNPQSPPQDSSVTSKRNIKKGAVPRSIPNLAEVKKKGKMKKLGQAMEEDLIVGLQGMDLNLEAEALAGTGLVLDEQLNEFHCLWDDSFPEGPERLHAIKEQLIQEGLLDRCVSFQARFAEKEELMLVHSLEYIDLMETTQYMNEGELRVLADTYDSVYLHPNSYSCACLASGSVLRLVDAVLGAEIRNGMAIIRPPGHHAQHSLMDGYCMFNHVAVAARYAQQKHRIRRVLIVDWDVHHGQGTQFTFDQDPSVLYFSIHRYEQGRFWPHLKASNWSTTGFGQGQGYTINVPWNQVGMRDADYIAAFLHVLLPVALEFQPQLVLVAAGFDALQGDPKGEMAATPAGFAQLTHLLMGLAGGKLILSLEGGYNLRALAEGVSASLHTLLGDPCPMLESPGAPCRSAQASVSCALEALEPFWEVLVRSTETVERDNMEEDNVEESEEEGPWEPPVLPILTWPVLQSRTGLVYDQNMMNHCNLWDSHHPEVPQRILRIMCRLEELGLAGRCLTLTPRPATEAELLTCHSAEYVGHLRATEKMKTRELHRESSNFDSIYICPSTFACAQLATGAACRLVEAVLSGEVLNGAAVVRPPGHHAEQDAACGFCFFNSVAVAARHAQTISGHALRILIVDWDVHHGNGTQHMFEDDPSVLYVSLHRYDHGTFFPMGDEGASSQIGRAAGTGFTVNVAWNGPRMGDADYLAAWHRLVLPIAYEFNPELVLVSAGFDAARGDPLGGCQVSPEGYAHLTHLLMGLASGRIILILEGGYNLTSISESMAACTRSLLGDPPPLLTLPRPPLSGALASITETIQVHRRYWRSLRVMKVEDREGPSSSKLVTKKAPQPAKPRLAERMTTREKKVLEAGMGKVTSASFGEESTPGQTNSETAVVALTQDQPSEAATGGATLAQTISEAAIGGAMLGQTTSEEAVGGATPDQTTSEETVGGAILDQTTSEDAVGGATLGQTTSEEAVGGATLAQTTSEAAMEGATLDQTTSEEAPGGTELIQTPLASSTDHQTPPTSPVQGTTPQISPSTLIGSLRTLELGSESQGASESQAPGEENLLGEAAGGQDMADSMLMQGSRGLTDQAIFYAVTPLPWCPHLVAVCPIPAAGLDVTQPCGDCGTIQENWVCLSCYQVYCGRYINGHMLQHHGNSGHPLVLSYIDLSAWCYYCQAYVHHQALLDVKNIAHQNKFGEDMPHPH

HEL 299 = assay: Cytotoxicity against human HEL 299 cells at 50 uM; format: toxicity, cell-based; conditions: hel 299, 50 µM
HEp-2 = assay: Cytotoxicity against human HEp-2 cells at 50 uM; format: toxicity, cell-based; conditions: hep-2, 50 µM
[3] = Cytotoxicity against green monkey […] cells at 50 uM; format: toxicity, cell-based; conditions: chlorocebus sabaeus
Hep 3B2 = assay: Cytotoxicity against human Hep3B cells at 50 uM; format: toxicity, cell-based; conditions: hep 3b2, 50 µM
MDCK = assay: Cytotoxicity against dog MDCK cells at 50 uM; format: toxicity, cell-based, Canis lupus familiaris
[4] = Cytotoxicity against human Hep3B cells; format: toxicity, cell-based, Hep 3B2
MM1.S [5] = assay: Cytotoxicity against human MM1.S cells at 0.025 to 0.3 uM incubated for 24 hrs by cellTiter-Glo luminescent cell viability assay; format: functional, cell-based
[6] = Cytotoxicity against human HEL 299 cells; format: toxicity, cell-based
[7] = Cytotoxicity against dog MDCK cells; format: toxicity, cell-based, Canis lupus familiaris
[8] = Cytotoxicity against human HEp-2 cells; format: toxicity, cell-based
[9] = Cytotoxicity against green monkey […] cells; format: toxicity, cell-based; conditions: chlorocebus sabaeus
[10] = molecular target: T1, Protein deacetylase HDAC6; assay: Inhibition of HDAC6 deacetylase domain 2 (unknown origin) using fluorogenic HDAC substrate incubated for 15 to 60 mins by fluorimetric analysis
MM1.S [11] = assay: Cytotoxicity against human MM1.S cells assessed as reduction in cell viability at 1 to 10 nM incubated for 24 hrs by cellTiter-Glo luminescent cell viability assay; format: functional, cell-based
RPMI-8226 [12] = assay: Cytotoxicity against human RPMI-8226 cells at 8 nM incubated for 24 hrs by cellTiter-Glo assay relative to control; format: functional
MM1.S [13] = assay: Cytotoxicity against human MM1.S cells at 8 nM incubated for 24 hrs by cellTiter-Glo assay relative to control; format: functional
RPMI-8226 [14] = assay: Cytotoxicity against human RPMI-8226 cells at 2 to 12 nM incubated for 24 hrs by cellTiter-Glo assay; format: functional, cell-based; conditions: RPMI-8226, 24 h

Compound: CCOC(=O)CCc1nc2ccccc2c(=O)n1C
Activity (HL-60): 0.31 | Activity (MM1.S [1]): inactive

Compound: CCOC(=O)CCc1nc(OCc2ccccc2)c2ccccc2n1
Activity (HEL 299): Toxic | Activity (HEp-2): Toxic | Activity [3]: Toxic | Activity (Hep 3B2): Toxic | Activity (MDCK): Toxic

Compound: CC(/C=C/C(=O)NO)=C\[C@@H](C)C(=O)c1ccc(N(C)C)cc1 [TRICHOSTATIN]
CC50 [4]: 400 nM

Compound: CC(C)C[C@@H](C=O)NC(=O)[C@H](CC(C)C)NC(=O)[C@H](CC(C)C)NC(=O)OCc1ccccc1 [MG-132] (Cbz-Leu-Leu-Leu-aldehyde)
Activity (HL-60): > 0.5 | IC50 (MM1.S [5]): 150 nM

Compound: CN1CCc2c(c3ccccc3n2Cc2ccc(C(=O)NO)cc2)C1 [TUBASTATIN A]
Activity (HL-60): > 0.5 | CC50 [6]: […] | CC50 [7]: […] | CC50 [8]: […] | CC50 [9]: […]

Compound: O=C(O)CCn1c2c(c3cc(F)ccc31)CS(=O)(=O)CC2
IC50 [2]: 168000 nM

Compound: CCOC(=O)CCc1nc2ccccc2c(=O)n1Cc1ccc(F)cc1
Activity (HL-60): 0.31

Compound: CC(C)C[C@H](NC(=O)[C@H](Cc1ccccc1)NC(=O)c1cnccn1)B(O)O [BORTEZOMIB]
Activity (HL-60): > 0.5 | IC50 (MM1.S [11]): 4.32 nM | Activity (RPMI-8226 [12]): ~50% | Activity (MM1.S [13]): ~10% | IC50 (RPMI-8226 [14]): 9.6 nM | CC50 [6]: 1200 nM | CC50 [4]: 1200 nM | CC50 [7]: 1200 nM | CC50 [8]: 1200 nM | CC50 [9]: 1200 nM

Compound: CCOC(=O)CCc1nc2ccccc2c(=O)n1Cc1ccccc1
Activity (HL-60): 0.31

Next, values leading:

IC50 [2]: 162000 nM
Compound: O=C(O)CCn1c2c(c3cc(-c4ccc(F)cc4)ccc31)CS(=O)(=O)CC2

IC50 [2]: 20500 nM
Compound: CCn1c(CCC(=O)O)nc2ccccc2c1=O

IC50 [2]: 61700 nM
Compound: CCCn1c(CCC(=O)O)nc2ccccc2c1=O

IC50 [2]: 5000 nM
Compound: Cn1c(CCC(=O)O)nc2ccccc2c1=O

IC50 [2]: 33100 nM
Compound: O=C(O)CCc1nc2ccccc2c(=O)n1Cc1ccccc1

IC50 [2]: 127000 nM
Compound: O=C(O)CCc1nc2ccccc2c(=O)n1Cc1ccc(F)cc1

IC50 [10]: 19 nM
Compound: O=C(NO)c1ccc(Cn2c3c(c4ccccc42)CS(=O)(=O)CC3)cc1

IC50 [2]: 68000 nM
Compound: O=C(O)CCc1nc2ccccc2c(=O)n1Cc1ccc(Cl)cc1

IC50 [2]: 542000 nM
Compound: O=C(O)CCC1C(=O)N(Cc2ccccc2)c2ccccc21 (stereo not drawn)

IC50 [2]: 285000 nM
Compound: O=C(O)CCn1c2c(c3ccccc31)CS(=O)(=O)CC2
